Consider 36 compounds from US20250025443A1, “COMPOUNDS AND METHODS FOR TREATING CORONA VIRUSES” (CLEAR CREEK BIO, INC., priority 2021, published 2025).

A word on the IC50: it is the midpoint of a concentration-inhibition curve.

In one experiment the target is SARS-CoV-2 Papain-Like Protease (PLpro) (Severe acute respiratory syndrome coronavirus 2 (2019-nCoV) (SARS-CoV-2), UniProt P0DTD1). The experiment in a line: biochemical. The settings on record: PLpro enzymatic fluorescence assay; class symbols; read-out: PLpro IC50.
Regarding `Cc1ccc(OCC(C)N)cc1C(=O)NC1(c2cccc3ncccc23)CC1` (stereo not drawn) [Compound 498, 5-(2-Aminopropoxy)-2-methyl-N-(1-(quinolin-5-yl)cyclopropyl)benzamide], the 50% inhibitory concentration (IC50) was less than 100 nM. Turning to `CC(=O)Nc1cc(C2(NC(=O)c3cc(OCC4CCN4C)ccc3C)CC2)c2ccccc2c1` (stereo not drawn) [Compound 500, N-(1-(3-Acetamidonaphthalen-1-yl)cyclopropyl)-2-methyl-5-((1-methylazetidin-2-yl)methoxy)benzamide], the IC50 was less than 100 nM. Consider `Cc1ccc(OCC(C)N)cc1C(=O)NC1(c2cc(-c3ccc(Cl)s3)cc3ccccc23)CC1` (stereo not drawn) [Compound 502, 5-(2-Aminopropoxy)-N-(1-(3-(5-chlorothiophen-2-yl)naphthalen-1-yl)cyclopropyl)-2-methylbenzamide], for which the IC50 was less than 100 nM. For the compound `C=CCc1cc(C2(NC(=O)c3cc(OCC4CCN4C)ccc3C)CC2)c2ccccc2c1` (stereo not drawn) [Compound 503, N-(1-(3-Allylnaphthalen-1-yl)cyclopropyl)-2-methyl-5-((1-methylazetidin-2-yl)methoxy)benzamide], the 50% inhibitory concentration (IC50) is less than 100 nM. Same read-out and setting: for `CCCc1cc(C2(NC(=O)c3cc(OCC4CCN4C)ccc3C)CC2)c2ccccc2c1` (stereo not drawn) [Compound 504, 2-Methyl-5-((1-methylazetidin-2-yl)methoxy)-N-(1-(3-propylnaphthalen-1-yl)cyclopropyl)benzamide] the value was less than 100 nM; for `Cc1ccc(N2C[C@@H](C)N[C@@H](C)C2)cc1C(=O)NC1(c2cccc3ccccc23)CC1` [Compound 506, 5-((3S,5R)-3,5-Dimethylpiperazin-1-yl)-2-methyl-N-(1-(naphthalen-1-yl)cyclopropyl)benzamide], less than 100 nM; for `Cc1ccc(OCC2CCN2C)cc1C(=O)NC1(c2c3ccccc3cc3ccccc23)CC1` (stereo not drawn) [Compound 507, N-(1-(Anthracen-9-yl)cyclopropyl)-2-methyl-5-((1-methylazetidin-2-yl)methoxy)benzamide], 100 to 1000 nM. On the same count and under the same terms, for `COc1cc(C2(NC(=O)c3cc(OC[C@H]4C[C@H](F)CN4)ccc3C)CC2)c2ccccc2c1` [Compound 510, 5-(((2R,4S)-4-Fluoropyrrolidin-2-yl)methoxy)-N-(1-(3-methoxynaphthalen-1-yl)cyclopropyl)-2-methylbenzamide] the value was less than 100 nM; for `COc1cc(C2(NCc3cc(OCCN)ccc3C)CC2)c2cccnc2c1` [Compound 513], less than 100 nM. The same measure, in the same setting: for `Cc1ccc(OCC2CCN2C)cc1C(=O)NC1(c2cc(-c3ccc(Cl)s3)cc3ccccc23)CC1` (stereo not drawn) [Compound 514, N-(1-(3-(5-Chlorothiophen-2-yl)naphthalen-1-yl)cyclopropyl)-2-methyl-5-((1-methylazetidin-2-yl)methoxy)benzamide] the value was less than 100 nM; for `CCc1cc(C2(NC(=O)c3cc(OCC4CCN4C)ccc3C)CC2)c2ccccc2c1` (stereo not drawn) [Compound 516, N-(1-(3-Ethylnaphthalen-1-yl)cyclopropyl)-2-methyl-5-((1-methylazetidin-2-yl)methoxy)benzamide], less than 100 nM; for `C=Cc1cc(C2(NC(=O)c3cc(OCC4CCN4C)ccc3C)CC2)c2ccccc2c1` (stereo not drawn) [Compound 517, 2-Methyl-5-((1-methylazetidin-2-yl)methoxy)-N-(1-(3-vinylnaphthalen-1-yl)cyclopropyl)benzamide], less than 100 nM.

For `Cc1ccc(OCC2CCN2C)cc1C(=O)NC1(c2cc(-c3ccc(F)cc3)cc3ccccc23)CC1` (stereo not drawn) [Compound 518, N-(1-(3-(4-Fluorophenyl)naphthalen-1-yl)cyclopropyl)-2-methyl-5-((1-methylazetidin-2-yl)methoxy)benzamide], the concentration for half-maximal inhibition (IC50) is less than 100 nM.

With `COc1cc(C2(NC(=O)c3cc(OC[C@H]4C[C@H](F)CN4C)ccc3C)CC2)c2ccccc2c1` [Compound 531, 5-(((2R,4S)-4-Fluoro-1-methylpyrrolidin-2-yl)methoxy)-N-(1-(3-methoxynaphthalen-1-yl)cyclopropyl)-2-methylbenzamide], the half-inhibitory concentration (IC50) is less than 100 nM.

As to `COc1cc(C2(NC(=O)c3cc(OC[C@@H]4C[C@@H](F)CN4C)ccc3C)CC2)c2cccnc2c1` [Compound 532, 5-(((2S,4R)-4-Fluoro-1-methylpyrrolidin-2-yl)methoxy)-N-(1-(7-methoxyquinolin-5-yl)cyclopropyl)-2-methylbenzamide], the half-inhibitory concentration (IC50) was less than 100 nM.

For the compound `COc1cc(C2(NC(=O)c3cc(OC[C@@H](C)N)ccc3C)CC2)c2cccnc2c1` [Compound 535, (R)-5-(2-Aminopropoxy)-N-(1-(7-methoxyquinolin-5-yl)cyclopropyl)-2-methylbenzamide], the IC50 was less than 100 nM. Turning to `COc1cc(C2(NC(=O)c3cc(OC[C@H](C)N)ccc3C)CC2)c2ccncc2c1` [Compound 536, (S)-5-(2-Aminopropoxy)-N-(1-(7-methoxyisoquinolin-5-yl)cyclopropyl)-2-methylbenzamide], the IC50 is less than 100 nM. For `COc1cc(C2(NC(=O)c3cc(OC[C@@H](C)N)ccc3C)CC2)c2ccncc2c1` [Compound 537, (R)-5-(2-Aminopropoxy)-N-(1-(7-methoxyisoquinolin-5-yl)cyclopropyl)-2-methylbenzamide], the IC50 was less than 100 nM.

The same experiment, now with this note: SARS-CoV-2 PLpro enzymatic fluorescence assay; read-out: PLpro IC50.
For `Cc1cc(C2(NC(=O)c3cc(OCC(C)N)ccc3C)CC2)c2cccnc2c1` (stereo not drawn) [Compound 497, 5-(2-Aminopropoxy)-2-methyl-N-(1-(7-methylquinolin-5-yl)cyclopropyl)benzamide], the IC50 was less than 100 nM. Regarding `CNCCOc1ccc(C)c(C(=O)NC2(c3cccc4ccccc34)CN(C)C2)c1` [Compound 499, 2-Methyl-N-(1-methyl-3-(naphthalen-1-yl)azetidin-3-yl)-5-(2-(methylamino)ethoxy)benzamide], the IC50 was more than 5000 nM. For the compound `Cc1cc(C2(NC(=O)c3cc(OCC4CCN4C)ccc3C)CC2)c2ccccc2c1` (stereo not drawn) [Compound 501, 2-Methyl-5-((1-methylazetidin-2-yl)methoxy)-N-(1-(3-methylnaphthalen-1-yl)cyclopropyl)benzamide], the 50% inhibitory concentration (IC50) was less than 100 nM. Take `Cc1ccc(N2CCN(CCO)CC2)cc1C(=O)NC1(c2cccc3ccccc23)CC1` [Compound 505, 5-(4-(2-Hydroxyethyl)piperazin-1-yl)-2-methyl-N-(1-(naphthalen-1-yl)cyclopropyl)benzamide]: the IC50 was less than 100 nM. On to `C=C(C)c1cc(C2(NC(=O)c3cc(OCC4CCN4C)ccc3C)CC2)c2ccccc2c1` (stereo not drawn) [Compound 508, 2-Methyl-5-((1-methylazetidin-2-yl)methoxy)-N-(1-(3-(prop-1-en-2-yl)naphthalen-1-yl)cyclopropyl)benzamide], for which the 50% inhibitory concentration (IC50) is less than 100 nM.

With `Cc1ccc(OCC2CCN2C)cc1C(=O)NC1(c2cccc3cnc(O)cc23)CC1` (stereo not drawn) [Compound 509, N-(1-(3-Hydroxyisoquinolin-5-yl)cyclopropyl)-2-methyl-5-((1-methylazetidin-2-yl)methoxy)benzamide], the concentration for half-maximal inhibition (IC50) was 100 to 1000 nM. On to `COc1cc(C2(NC(=O)c3cc(OC[C@@H]4CCN4)ccc3C)CC2)c2cccnc2c1` [Compound 511, (S)-5-(Azetidin-2-ylmethoxy)-N-(1-(7-methoxyquinolin-5-yl)cyclopropyl)-2-methylbenzamide], for which the IC50 is less than 100 nM. In the case of `Cc1ccc(OCC2CCN2C)cc1C(=O)NC1(c2cc(C(N)=O)cc3ccccc23)CC1` (stereo not drawn) [Compound 520, 4-(1-(2-Methyl-5-((1-methylazetidin-2-yl)methoxy)benzamido)cyclopropyl)-2-naphthamide], the half-inhibitory concentration (IC50) is less than 100 nM.

Take `Cc1ccc(OCC2CCN2C)cc1C(=O)NC1(c2cc(C(C)C)cc3ccccc23)CC1` (stereo not drawn) [Compound 521, N-(1-(3-Isopropylnaphthalen-1-yl)cyclopropyl)-2-methyl-5-((1-methylazetidin-2-yl)methoxy)benzamide]: the IC50 was less than 100 nM. Take `CC(c1cccc2cnccc12)N1CCC(C(=O)NCc2cccc(F)c2)CC1` (stereo not drawn) [Compound 522, N-(3-Fluorobenzyl)-1-(1-(isoquinolin-5-yl)ethyl)piperidine-4-carboxamide]: the IC50 is more than 5000 nM.

For `COc1cc(C(C)N2CCC(C(=O)NCc3cccc(F)c3)CC2)c2ccccc2c1` (stereo not drawn) [Compound 524, N-(3-Fluorobenzyl)-1-(1-(3-methoxynaphthalen-1-yl)ethyl)piperidine-4-carboxamide], the IC50 lay within 100 to 1000 nM. Still for that read-out and setting: with `CNCCOc1ccc(C)c(C(=O)NC2(c3cc(OC)cc4ncccc34)CC2)c1` [Compound 526, N-(1-(7-Methoxyquinolin-5-yl)cyclopropyl)-2-methyl-5-(2-(methylamino)ethoxy)benzamide] the figure was less than 100 nM; with `COc1cc(C2(NC(=O)c3cc(OC[C@@H]4CCN4C)ccc3C)CC2)c2cccnc2c1` [Compound 527, (S)-N-(1-(7-Methoxyquinolin-5-yl)cyclopropyl)-2-methyl-5-((1-methylazetidin-2-yl)methoxy)benzamide], less than 100 nM; with `COc1cc(C2(NC(=O)c3cc(OC[C@@H]4CCCN4C)ccc3C)CC2)c2cccnc2c1` [Compound 528, (S)-N-(1-(7-Methoxyquinolin-5-yl)cyclopropyl)-2-methyl-5-((1-methylpyrrolidin-2-yl)methoxy)benzamide], less than 100 nM. In the case of `Cc1ccc(OCC2CCN2C)cc1C(=O)NC1(c2cccc3nc(F)ccc23)CC1` (stereo not drawn) [Compound 529, N-(1-(2-Fluoroquinolin-5-yl)cyclopropyl)-2-methyl-5-((1-methylazetidin-2-yl)methoxy)benzamide], the IC50 was less than 100 nM.

For `COc1cc(C2(NC(=O)c3cc(OC[C@H](C)N)ccc3C)CC2)c2cccnc2c1` [Compound 530, (S)-5-(2-Aminopropoxy)-N-(1-(7-methoxyquinolin-5-yl)cyclopropyl)-2-methylbenzamide], the half-maximal inhibitory concentration (IC50) is less than 100 nM.

`Cc1ccc(OC2CNC(C)(C)C2)cc1C(=O)NC1(c2cccc3ccccc23)CC1` (stereo not drawn) [Compound 533, 5-((5,5-Dimethylpyrrolidin-3-yl)oxy)-2-methyl-N-(1-(naphthalen-1-yl)cyclopropyl)benzamide]: the concentration for half-maximal inhibition (IC50) is less than 100 nM. On the same count and under the same terms, with `Cc1ccc(OCC2CC(C)(C)N2)cc1C(=O)NC1(c2cccc3ccccc23)CC1` (stereo not drawn) [Compound 534, 5-((4,4-Dimethylazetidin-2-yl)methoxy)-2-methyl-N-(1-(naphthalen-1-yl)cyclopropyl)benzamide] the figure was less than 100 nM.
